The subject of assay [1] is OCI-Ly10 cells. Briefly: Proliferation-Inhibitory Test Against Diffuse Large-Cell B-Cell Lymphoma OCI-Ly10 Strain. Type of assay: cell-based. As to conditions: Homo sapiens, 96 hours, alamarBlue. The procedure, abridged:
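In IMDM with 20% FBS, OCI-Ly10 cells (20000 cells/well) were exposed to compound at 0.9 nM to 30000 nM (0.3% DMSO final) for 96 hours. Viability was then read with alamarBlue reagent.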
For orientation: Resazurin is reduced to fluorescent resorufin, in cell work by metabolically active cells.

Assay [2] has as its target wild type BTK [BTK(WT)] (Homo sapiens (Human), UniProt Q06187). The experiment in a line: C481S Mutant BTK Inhibitory Activity Test, wild type BTK (mobility shift assay). Type of assay: biochemical. As to conditions: 120 μM ATP. On the procedure:
(§1) The kinase activity was measured using QuickScout Screening Assist (trademark) MSA (commercially available kit manufactured by Carna Biosciences, Inc.) by mobility shift assay (MSA) method. The substrate of the kinase reaction was an FITC-labeled SRCtide peptide included in the kit. […] The 10 mM solution of the test compound in DMSO was further diluted with DMSO to 10 levels of the concentration (0.00003 mM, 0.0001 mM, 0.0003 mM, 0.001 mM, 0.003 mM, 0.01 mM, 0.03 mM, 0.1 mM, 0.3 mM, 1 mM), each of which was subjected to a 25-fold dilution with the assay buffer to obtain the drug solutions (4% DMSO solutions).
(§2) 5 μL of the drug solution or a control solution (4% DMSO-assay buffer), 5 μL of the substrate mixture solution, and 10 μL of the enzyme solution were mixed in the wells of a polypropylene 384-well plate and allowed to react at room temperature for 1 hour, and then quenched by adding 60 μL of the termination buffer included in the kit. Subsequently, the quantities of the substrates (S) and the phosphorylated substrate (P) in the reaction solution were measured using LabChip EZ Reader II system (manufactured by Caliper Life Sciences) according to the protocol of the assay kit.
(§3) The heights of the peaks of the isolated substrate and the phosphorylated substrate were represented as S and P, respectively, and a blank which contained the assay buffer instead of the enzyme solution was also measured.
(§4) The inhibition rate (%) of the test compound was calculated according to the following equation; Inhibition rate (%)=(1−(C−A)/(B−A))×100 • wherein, A, B and C represent P/(P+S) of the blank well, P/(P+S) of the control well and P/(P+S) of the compound-containing well, respectively.
(§5) The IC50 value was calculated via a regression analysis of the inhibition rate (%) and the test compound concentration (logarithmic value).

Assay [3] concerns the target C481S mutant BTK [BTK(C481S)] (Homo sapiens (Human), UniProt Q06187, C481S). The experiment in a line: C481S Mutant BTK Inhibitory Activity Test (mobility shift assay). In kind it is biochemical. To be noted: for IC50: C481S mutant BTK, 100 μM ATP; for C481S mutation-resistance: IC50[BTK(C481S)]/IC50[BTK(WT)]. On the procedure: as §1, §2, §3, §4, §5
Assay [4] concerns the target dephosphorylated BTK (Homo sapiens (Human), UniProt Q06187). Briefly: BTK Activity Inhibition Test (mobility shift assay). As to conditions: 200 μM ATP, read-out: Inhibitory Activity on BTK. In kind it is biochemical. On the procedure: Dephosphorylated BTK was obtained by adding λ protein phosphatase (manufactured by New England BioLabs Inc., Code No. P0753S) and MnCl2 at 10 U/μg and 2 mM, respectively, to biotinylated BTK protein BTN-BTK (Manufactured by Carna Biosciences, Inc.) enzyme solution, reacting the mixture at 4° C. overnight, and removing of λ protein phosphatase by anti […]-tag antibody agarose gel chromatography, followed by buffer exchange using a 10DG Desalting Column.
The kinase activity was measured using QuickScout Screening Assist (trade mark) MSA (commercially available kit manufactured by Carna Biosciences, Inc.) by mobility shift assay (MSA) method. The substrate of the kinase reaction was an FITC-labeled SRCtide peptide included in the kit. An assay buffer [20 mM HEPES, 0.01% Triton X-100 (Trade mark), 2 mM dithiothreitol, pH 7.5] was used and adjusted at 4 μM substrate, 20 mM MgCl2 and 200 μm ATP to obtain a substrate mixture solution. The enzyme solution was also prepared by diluting the dephosphorylated BTK to 0.46 nM using the assay buffer. The 10 mM solution of the test compound in DMSO was further diluted with DMSO to 10 levels of the concentration (0.00003 mM, 0.0001 mM, 0.0003 mM, 0.001 mM, 0.003 mM, 0.01 mM, 0.03 mM, 0.1 mM, 0.3 mM, 1 mM), each of which was subjected to a 25-fold dilution with the assay buffer to obtain the drug solutions (4% DMSO solutions). 5 μL of the drug solution or a control solution (4% DMSO-assay buffer), 5 μL of the substrate mixture solution, and 10 μL of the enzyme solution were mixed in the wells of a polypropylene 384-well plate and allowed to react at room temperature for 2 hours, and then quenched by adding 60 μL of the termination buffer included in the kit. Subsequently, the quantities of the substrates (S) and the phosphorylated substrate (P) in the reaction solution were measured using LabChip EZ Reader II system (manufactured by Caliper Life Sciences) according to the protocol of the assay kit.
as §3, §4, §5

wild type BTK [BTK(WT)], sequence (Q06187 whole entry): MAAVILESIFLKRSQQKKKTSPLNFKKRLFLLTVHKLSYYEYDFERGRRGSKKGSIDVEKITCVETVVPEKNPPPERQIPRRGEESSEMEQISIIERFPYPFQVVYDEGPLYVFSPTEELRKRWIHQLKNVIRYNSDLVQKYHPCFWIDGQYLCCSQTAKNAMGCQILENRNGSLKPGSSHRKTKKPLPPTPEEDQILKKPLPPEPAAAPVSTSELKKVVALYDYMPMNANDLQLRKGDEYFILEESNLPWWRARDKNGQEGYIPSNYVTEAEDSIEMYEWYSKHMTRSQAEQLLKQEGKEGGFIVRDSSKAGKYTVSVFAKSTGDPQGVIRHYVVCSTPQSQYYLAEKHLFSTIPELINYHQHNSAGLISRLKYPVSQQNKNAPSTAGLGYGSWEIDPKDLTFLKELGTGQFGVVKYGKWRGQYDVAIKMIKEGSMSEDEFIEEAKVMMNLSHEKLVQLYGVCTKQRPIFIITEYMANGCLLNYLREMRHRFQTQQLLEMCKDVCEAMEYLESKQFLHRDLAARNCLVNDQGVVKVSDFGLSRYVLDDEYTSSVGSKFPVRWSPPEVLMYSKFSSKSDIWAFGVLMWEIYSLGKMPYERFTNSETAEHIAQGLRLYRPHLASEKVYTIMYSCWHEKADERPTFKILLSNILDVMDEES
C481S mutant BTK [BTK(C481S)], sequence (Q06187 whole entry C481S): as the sequence (Q06187 whole entry) above, with C481S counted along it
dephosphorylated BTK, sequence (Q06187 whole entry): as the sequence (Q06187 whole entry) above

Regarding `Nc1nc(-c2cccc(-n3ccc4cc(C5CC5)cc(F)c4c3=O)c2CO)c2cc(C3=CCS(=O)(=O)CC3)[nH]c2n1` [Example 83, 2-{3-[2-amino-6-(1,1-dioxido-3,6-dihydro-2H-thiopyran-4-yl)-7H-pyrrolo[2,3-d]pyrimidin-4-yl]-2-(hydroxymethyl)phenyl}-6-cyclopropyl-8-fluoroisoquinolin-1(2H)-one], the IC50 in assay [1] was 8 nM; in assay [2] it was 0.25 nM; in assay [3], 0.58 nM. The C481S mutation-resistance in assay [3] worked out at 2.3.

Regarding `Nc1nc(-c2cccc(-n3ccc4cc(C5CC5)cc(F)c4c3=O)c2CO)c2cc(-c3ccc(CN4CCNC(=O)C4)cc3)[nH]c2n1` [Example 66, 2-[3-(2-amino-6-{4-[(3-oxopiperazin-1-yl)methyl]phenyl}-7H-pyrrolo[2,3-d]pyrimidin-4-yl)-2-(hydroxymethyl)phenyl}-6-cyclopropyl-8-fluoroisoquinolin-1(2H)-one], the IC50 in assay [1] stood at 18 nM; in assay [2], 0.47 nM; in assay [3], 0.93 nM. In addition, in assay [3], the C481S mutation-resistance came out at 2.

Consider `Nc1nc(-c2cccc(-n3ccc4cc(C5CC5)cc(F)c4c3=O)c2CO)c2cc(C3=CCN(C(=O)N4CCCC4)CC3)[nH]c2n1` [Example 88, 2-(3-{2-amino-6-[1-(pyrrolidine-1-carbonyl)-1,2,3,6-tetrahydropyridin-4-yl]-7H-pyrrolo[2,3-d]pyrimidin-4-yl}-2-(hydroxymethyl)phenyl)-6-cyclopropyl-8-fluoroisoquinolin-1(2H)-one], for which the IC50 was 7 nM in assay [1], 0.94 nM in assay [2] and 1.49 nM in assay [3]. Also, in assay [3], the C481S mutation-resistance came out at 1.6.

In the case of `Nc1nc(-c2cccc(-n3ccc4cc(C5CC5)cc(F)c4c3=O)c2CO)c2cc(-c3ccc(CN4CCN(CCO)CC4)cc3)[nH]c2n1` [Example 61, 2-{3-[2-amino-6-(4-{[4-(2-hydroxyethyl)piperazin-1-yl]methyl}phenyl)-7H-pyrrolo[2,3-d]pyrimidin-4-yl]-2-(hydroxymethyl)phenyl}-6-cyclopropyl-8-fluoroisoquinolin-1(2H)-one], the IC50 in assay [1] was 5 nM; in assay [2] it was 0.36 nM; in assay [3], 0.57 nM. The C481S mutation-resistance in assay [3] was determined as 1.6.

With `CNc1cc(-c2cc3c(-c4cccc(-n5ccc6cc(C7CC7)cc(F)c6c5=O)c4CO)nc(N)nc3[nH]2)ccn1` [Example 50, 2-(3-{2-amino-6-[2-(methylamino)pyridin-4-yl]-7H-pyrrolo[2,3-d]pyrimidin-4-yl}-2-(hydroxymethyl)phenyl)-6-cyclopropyl-8-fluoroisoquinolin-1(2H)-one], the IC50 in assay [1] was 52 nM; in assay [2], 0.77 nM; in assay [3], 1.6 nM. Further, the C481S mutation-resistance in assay [3] was 2.1.

As for `CS(=O)(=O)N1CC=C(c2cc3c(-c4cccc(-n5ccc6cc(C7CC7)cc(F)c6c5=O)c4CO)nc(N)nc3[nH]2)CC1` [Example 89, 2-(3-{2-amino-6-[1-(methylsulfonyl)-1,2,3,6-tetrahydropyridin-4-yl]-7H-pyrrolo[2,3-d]pyrimidin-4-yl}-2-(hydroxymethyl)phenyl)-6-cyclopropyl-8-fluoroisoquinolin-1(2H)-one], the IC50 in assay [1] is 10 nM; in assay [2] it was 0.34 nM; in assay [3] it was 0.7 nM. Moreover, in assay [3], the C481S mutation-resistance is given as 2.1.

As for `Nc1nc(-c2cccc(-n3ccc4cc(C5CC5)cc(F)c4c3=O)c2CO)c2cc(C3=CCNCC3)[nH]c2n1` [Example 93, 2-{3-[2-amino-6-(1,2,3,6-tetrahydropyridin-4-yl)-7H-pyrrolo[2,3-d]pyrimidin-4-yl]-2-(hydroxymethyl)phenyl}-6-cyclopropyl-8-fluoroisoquinolin-1(2H)-one], the values for the IC50 in assay [2] and in assay [3] were 0.41 nM and 0.99 nM, respectively. Besides, the C481S mutation-resistance in assay [3] came to 2.4.

Take `CN(C)C(=O)N1CC=C(c2cc3c(-c4cccc(-n5ccc6cc(C7CC7)cc(F)c6c5=O)c4CO)nc(N)nc3[nH]2)CC1` [Example 87, 4-{2-amino-4-[3-(6-cyclopropyl-8-fluoro-1-oxoisoquinolin-2(1H)-yl)-2-(hydroxymethyl)phenyl]-7H-pyrrolo[2,3-d]pyrimidin-6-yl}-N,N-dimethyl-5,6-dihydropyridine-1(2H)-carboxamide]: the IC50 amounted to 0.52 nM in assay [2] and 0.95 nM in assay [3]. Besides, the C481S mutation-resistance in assay [3] is listed as 1.8.

With `CN(C)Cc1ccc(-c2cc3c(-c4cccc(-n5ccc6cc(C7CC7)cc(F)c6c5=O)c4CO)nc(N)nc3[nH]2)cc1` [Example 51, 2-[3-(2-amino-6-{4-[(dimethylamino)methyl]phenyl}-7H-pyrrolo[2,3-d]pyrimidin-4-yl)-2-(hydroxymethyl)phenyl]-6-cyclopropyl-8-fluoroisoquinolin-1(2H)-one], the IC50 in assay [1] was found to be 10 nM; in assay [2] it was 0.43 nM; in assay [3], 0.78 nM. The C481S mutation-resistance in assay [3] is on record as 1.8.

For the compound `Nc1nc(-c2cccc(-n3ccc4cc(C5CC5)cc(F)c4c3=O)c2CO)c2cc(-c3ccc(CN4CCCCC4)cc3)[nH]c2n1` [Example 54, 2-(3-{2-amino-6-[4-(piperidin-1-ylmethyl)phenyl]-7H-pyrrolo[2,3-d]pyrimidin-4-yl}-2-(hydroxymethyl)phenyl)-6-cyclopropyl-8-fluoroisoquinolin-1(2H)-one], the IC50 in assay [1] amounted to 17 nM; in assay [2] it was 0.58 nM; in assay [3], 0.86 nM. In assay [3], the C481S mutation-resistance worked out at 1.5.

With `Nc1nc(-c2cccc(-n3ccc4cc(C5CC5)cc(F)c4c3=O)c2CO)c2cc(-c3ccc(CN4CCCC4)cc3)[nH]c2n1` [Example 53, 2-(3-{2-amino-6-[4-(pyrrolidin-1-ylmethyl)phenyl]-7H-pyrrolo[2,3-d]pyrimidin-4-yl}-2-(hydroxymethyl)phenyl)-6-cyclopropyl-8-fluoroisoquinolin-1(2H)-one], the values for the IC50 in assay [1], in assay [2] and in assay [3] were 25 nM, 0.51 nM and 0.9 nM, respectively. Moreover, in assay [3], the C481S mutation-resistance is recorded as 1.8.

As to `CN1CCN(C(=O)N2CC=C(c3cc4c(-c5cccc(-n6ccc7cc(C8CC8)cc(F)c7c6=O)c5CO)nc(N)nc4[nH]3)CC2)CC1` [Example 71, 2-(3-{2-amino-6-[1-(4-methylpiperazine-1-carbonyl)-1,2,3,6-tetrahydropyridin-4-yl]-7H-pyrrolo[2,3-d]pyrimidin-4-yl}-2-(hydroxymethyl)phenyl)-6-cyclopropyl-8-fluoroisoquinolin-1(2H)-one], in assay [2], the IC50 is 0.39 nM. Moreover, in assay [3], the IC50 came to 0.58 nM and the C481S mutation-resistance was 1.5.

As to `Nc1nc(-c2cccc(-n3ccc4cc(C5CC5)cc(F)c4c3=O)c2CO)c2cc(-c3cccc(F)c3)[nH]c2n1` [Example 29, 2-{3-[2-amino-6-(3-fluorophenyl)-7H-pyrrolo[2,3-d]pyrimidin-4-yl]-2-(hydroxymethyl)phenyl}-6-cyclopropyl-8-fluoroisoquinolin-1(2H)-one], the IC50 in assay [4] was less than 10 nM; in assay [1], 332 nM.
